Measured values: ChEMBL document CHEMBL1135031, “Sequestration of bacterial lipopolysaccharide by bis(Args) gemini compounds” (Bioorg Med Chem Lett, 2002)
In brackets after ≈: the same amount, converted by molar mass.

How the values were obtained:
[1] = Dose that resulted in 100% lethality in murine model of CF-1 mice; type: ADME; settings: mouse, in vivo
[2] = system: Mus musculus; assay: Tested for protective effect in D-galactosamine (800 mg/kg) sensitized mice injected with lipopolysaccharides at 20 ng/mouse and compound dose of 40 ug/mouse (ip); 0/10 (dead/ Total mice); type: functional
[3] = system: J774.A1; assay: Inhibition of TNF-a production by J774.A1 cells stimulated for 18 hr with Escherichia coli O111:B4 LPS (25 ng/mL); type: functional; settings: Mus musculus, J774.A1, 18 h; read-out: ED50 (the source's name)
[4] = system: Mus musculus; assay: Tested for protective effect in D-galactosamine (800 mg/kg) sensitized mice injected with lipopolysaccharides at 20 ng/mouse and compound dose of 10 ug/mouse (ip); 7/10 (dead/ Total mice); type: functional
[5] = system: Mus musculus; assay: Tested for protective effect in D-galactosamine (800 mg/kg) sensitized mice injected with lipopolysaccharides at 40 ng/mouse and compound dose of 0 ug/mouse (ip); 5/5 (dead/ Total mice); type: functional
[6] = system: Mus musculus; assay: Tested for protective effect in D-galactosamine (800 mg/kg) sensitized mice injected with lipopolysaccharides at 0 ng/mouse and compound dose of 10 ug/mouse (ip); 0/5 (dead/ Total mice); type: functional
[7] = system: Mus musculus; assay: Tested for protective effect in D-galactosamine (800 mg/kg) sensitized mice injected with lipopolysaccharides at 40 ng/mouse and compound dose of 40 ug/mouse (ip); 6/10 (dead/ Total mice); type: functional
[8] = system: Mus musculus; assay: Tested for protective effect in D-galactosamine (800 mg/kg) sensitized mice injected with lipopolysaccharides at 40 ng/mouse and compound dose of 10 ug/mouse (ip); 9/10 (dead/ Total mice); type: functional
[9] = system: Mus musculus; assay: Tested for protective effect in D-galactosamine (800 mg/kg) sensitized mice injected with lipopolysaccharides at 0 ng/mouse and compound dose of 40 ug/mouse (ip); 0/5 (dead/ Total mice); type: functional
[10] = system: Mus musculus; assay: Tested for protective effect in D-galactosamine (800 mg/kg) sensitized mice injected with lipopolysaccharides at 20 ng/mouse and compound dose of 0 ug/mouse (ip); 5/5 (dead/ Total mice); type: functional

Compound	Lethal dose [1] [ng/mL]	Lethality [2]	EC50 [3] [µg/mL]	Lethality [4]	Lethality [5]	Lethality [6]	Lethality [7]	Lethality [8]	Lethality [9]	Lethality [10]
CCCCCCCCCCCC(=O)N[C@@H](CCCN=C(N)N)C(=O)NCCCCCCCCCNC(=O)[C@H](CCCN=C(N)N)NC(=O)CCCCCCCCCCC	10	0	2.5 (≈ 2.99 µM)	7	5	0	6	9	0	5
CCCCCCCCCCCC(=O)N[C@@H](CCCN=C(N)N)C(=O)NCCCCCCNC(=O)[C@H](CCCN=C(N)N)NC(=O)CCCCCCCCCCC	–	–	1.4 (≈ 1.77 µM)	–	–	–	–	–	–	–
